Tests used:
tauopathy mouse model = conditions: LeCorre et al. 2006, Selenica et al. 2007; cited from earlier work
tau hyperphosphorylation = conditions: artificial hyperphosphorylation using toxic compounds like okadaic acid; cited from earlier work
[1] = tested on: Hyper-tau expressing SH-SY5Y cells; experiment: impedance spectroscopy based functional tau pathology in vitro screening assay (Hyper-tau cells); assay type: cell-based, human
Method: FIG. 6: Use of Hyper-tau cells for quantitative detection of compound efficiency. Taking the developed Hyper-tau cells, where pathology was induced by differentiation (20 nM staurosporine for 48 h) in comparison to the wildtype tau expressing cells (physiological condition) the efficiency of potential active pharmaceutical ingredients could be quantified.
Human neuroblastoma SH-SY5Y cells were grown in DMEM medium, supplemented with 15% fetal bovine serum (FBS), non-essential amino acids, glutamax and penicillin/streptomycine (Invitrogen). Differentiation of SH-SY5Y cells was induced by incubation of the SH-SY5Y cells with 20 nM stauropsprin (Sigma-Aldrich) for 48 hours. […]
Cells were cultured on self-developed 96-well arrays comprising a gold electrode at the culture surface. […] Impedance spectra were recorded with a self developed multiplexer unit for the 96-well arrays and an impedance Analyser Agilent 4294A (Agilent Technologies) with an alternating voltage of 10 mV with frequencies from 500 Hz to 5 MHz (0 mV bias between electrodes). For each experiment at least five wells were measured in replicate. All impedance magnitude spectra were analysed with a self-developed software IDAT (Impedance Data Analysing Tool). […]

[2] = tested on: tau mutant expressing SH-SY5Y cells; experiment: impedimetric detection of okadaic acid induced artificial hyperphosphorylation; assay type: cell-based, human; conditions: 25 nM
Method: FIG. 4: Impedimetric detection of consequences by okadaic acid induced artificial hyperphosphorylation. […] (n=3, 2D-ANOVA, Bonferoni post-hoc test, *p<0.05, **p<0.01, ***p<0.001)
(§1) Human neuroblastoma SH-SY5Y cells were grown in DMEM medium, supplemented with 15% fetal bovine serum (FBS), non-essential amino acids, glutamax and penicillin/streptomycine (Invitrogen). Differentiation of SH-SY5Y cells was induced by incubation of the SH-SY5Y cells with 20 nM stauropsprin (Sigma-Aldrich) for 48 hours. For the appropriate experiments differentiated cells were treated with okadaic acid (Sigma-Aldrich) in a concentration of 25 nM or in case of reference compound testing with SRN-003-556 and AR-A014418, respectively.
Cells were cultured on self-developed 96-well arrays comprising a gold electrode at the culture surface. The SH-SY5Y cells were differentiated for 48 hours on the 96-well arrays. Impedance spectra were recorded with a self developed multiplexer unit for the 96-well arrays and an impedance Analyser Agilent 4294A (Agilent Technologies) with an alternating voltage of 10 mV with frequencies from 500 Hz to 5 MHz (0 mV bias between electrodes). For each experiment at least five wells were measured in replicate. All impedance magnitude spectra were analysed with a self-developed software IDAT (Impedance Data Analysing Tool). […]

[3] = tested on: MC1-positive (abnormal conformation) tau in SH-SY5Y cell lines; experiment: Western blot detection of abnormal tau conformation with MC1 antibody; assay type: cell-based, human; conditions: undifferentiated neuroblastoma cell lines
Description: FIG. 2: Abnormal tau conformation in polymutant tau cell lines. Poly-mutant tau variants were developed and, using those variants, poly-mutant neuroblastoma cell lines were produced. In those cell lines tau adopting an abnormal/pathological conformation under physiological conditions was observed (MC1 abnormal tau). […] Corroborating recent results that phosphorylation may stabilize abnormal conformation the amount of MC1-positive tau species could be decreased by treating the cells with a tau kinase inhibitor (SRN-003-556). […]
Cells were harvested and protease as well as phosphatase inhibitor cocktail (Sigma-Aldrich) was added. Proteins were extracted by sonification (Hielscher GmbH) and protein concentration was determined using the Roti-Nanoquant Assay (Carl-Roth GmbH). Laemmli sample buffer was added to 60 μg cell lysate. Samples were separated on 10% SDS-polyacrylamide gel and electro transferred onto polyvinylidene fluoride membranes and subsequently immunolabeled with anti-MC1 specific antibody (Peter Davis Department of Pathology, Albert Einstein College of Medicine, 1:100) at 4° C. over night. Secondary antibody was horseradish peroxidase conjugated (Dianova, 1:5000). Specific protein signals were detected using Chemiluminescence Detection Kit (MobiTec) and ChemiDoc-XRS (BioRad). […]

SH-SY5Y cells = experiment: impedimetric monitoring of differentiated wildtype and poly-mutant tau expressing cells; assay type: cell-based, human; conditions: differentiated 48 h with 20 nM staurosporine, then monitored 24 h; compared to wildtype tau cells
Method: FIG. 5: Differentiation induces neurodegeneration in poly-mutant tau expressing SH-SY5Y cells. Differentiation of SH-SY5Y cells were induced by 48 h incubation with 20 nM staurosporine. Afterwards the cells were impedimetrically monitored for 24 h. […] (n=4, 2D-ANOVA, Bonferoni post-hoc test, *p<0.05, **p<0.01)
as §1
Cells were cultured on self-developed 96-well arrays comprising a gold electrode at the culture surface. The SH-SY5Y cells were differentiated for 48 hours on the 96-well arrays. Impedance spectra were recorded with a self developed multiplexer unit for the 96-well arrays and an impedance Analyser Agilent 4294A (Agilent Technologies) with an alternating voltage of 10 mV with frequencies from 500 Hz to 5 MHz (0 mV bias between electrodes). For each experiment at least five wells were measured in replicate. All impedance magnitude spectra were analysed with a self-developed software IDAT (Impedance Data Analysing Tool). IDAT calculates the impedance of cell-covered electrodes relative to electrodes without cells (relative impedance: (|Z|covered-|Z|cell-free)/|Z|cell-free×100%) and determine the and select the frequency where impedance change caused by the cell layer is maximum (for SH-SY5Y cells on 96-well array at about 100 kHz). […] Experiments were repeated at least three times. […]

[4] = tested on: SH-SY5Y neuroblastoma cell lines; experiment: formation of abnormal tau aggregates after differentiation (EGFP-tau imaging); assay type: cell-based, human; conditions: after induction of differentiation (20 nM staurosporine), without toxic cofactors
Method: FIG. 1: Abnormal tau aggregation in a hyper-mutated tau expressing cell line.
as §1

COc1ccc(CNC(=O)Nc2ncc([N+](=O)[O-])s2)cc1 [AR-A014418]
therapeutic effect in tauopathy mouse model (tauopathy mouse model): does not | therapeutic effect in okadaic acid based tau pathology in vitro assays (tau hyperphosphorylation): therapeutic effect | side effects detected by impedimetric monitoring ([1]; 6 h and 12 h, 0.1 nM-100 nM): toxic effects | therapeutic effect on Hyper-tau induced pathology (impedance) ([1]; Hyper-tau cells differentiated with 20 nM staurosporine for 48 h, compared to wildtype tau cells): no therapeutic effect

C=C1[C@@H](O)[C@@H]2O[C@]3(CC[C@H](/C=C/[C@@H](C)[C@@H]4CC(C)=C[C@@]5(O[C@H](C[C@@](C)(O)C(=O)O)CC[C@H]5O)O4)O3)CC[C@H]2O[C@@H]1[C@@H](O)C[C@H](C)[C@H]1O[C@@]2(CCCCO2)CC[C@H]1C [okadaic acid]
impedimetric effect of okadaic acid incubation ([2]; 3 h and 6 h): Hyper-tau mutant specific degenerative effect | impedimetric effect of okadaic acid incubation ([2]; after 24 h): massive cell damage in all tau mutants

Hyper-tau: 5× polymutant tauK257T/ΔK280/P301L/V337M/R406W, SEQ ID NO:3
MC1-detected misfolded tau species [3]: abnormally conformed, misfolded tau species | relative impedance of tau variant expressing cells (SH-SY5Y cells): still more substantial decrease of relative impedance | formation of abnormal tau aggregates [4]: formation of abnormal tau aggregates

K257Tq: 4× polymutant tauK257T/P301L/V337M/R406W
relative impedance of tau variant expressing cells (SH-SY5Y cells): lower impedance values

P301L: single mutant tau (P301L)
relative impedance of tau variant expressing cells (SH-SY5Y cells): same impedimetric characteristic like the wildtype tau expressing cells
